Assay results reported in ChEMBL document CHEMBL1201862, “PubChem BioAssay data set” (2004).
Active and inactive are the calls of the source.

Key:
[1] = biological target: T1, Coagulation factor XII (Homo sapiens, UniProt P00748); format: functional;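 further: activated factor XIIa alpha cleaving a fluorogenic AMC peptide substrate; inhibitor potency from loss of enzyme activity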
T1 sequence (P00748 whole entry): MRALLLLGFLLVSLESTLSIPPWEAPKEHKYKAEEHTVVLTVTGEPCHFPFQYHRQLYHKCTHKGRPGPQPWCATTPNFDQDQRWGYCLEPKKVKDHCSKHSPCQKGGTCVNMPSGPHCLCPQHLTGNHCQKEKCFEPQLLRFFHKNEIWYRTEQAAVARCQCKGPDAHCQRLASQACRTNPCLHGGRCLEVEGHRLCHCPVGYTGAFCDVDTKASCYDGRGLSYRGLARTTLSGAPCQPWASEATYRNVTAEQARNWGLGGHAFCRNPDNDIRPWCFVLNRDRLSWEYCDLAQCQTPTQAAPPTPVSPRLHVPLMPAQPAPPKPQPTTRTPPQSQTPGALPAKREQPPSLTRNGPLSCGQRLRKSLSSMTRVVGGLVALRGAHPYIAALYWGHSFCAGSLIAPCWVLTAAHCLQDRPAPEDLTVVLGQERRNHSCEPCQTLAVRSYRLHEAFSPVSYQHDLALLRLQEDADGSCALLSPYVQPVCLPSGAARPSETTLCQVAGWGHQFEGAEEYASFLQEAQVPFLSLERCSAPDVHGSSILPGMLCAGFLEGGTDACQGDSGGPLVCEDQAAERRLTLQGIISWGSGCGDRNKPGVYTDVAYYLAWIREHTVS

[2] = biological target: T2, Caspase-6 (Homo sapiens, UniProt P55212); experiment: human caspase-6 inhibitors, dose response, biochemical, VEID-R110 fluorescence, cherry-pick (AID 720632)
T2 sequence (P55212 whole entry): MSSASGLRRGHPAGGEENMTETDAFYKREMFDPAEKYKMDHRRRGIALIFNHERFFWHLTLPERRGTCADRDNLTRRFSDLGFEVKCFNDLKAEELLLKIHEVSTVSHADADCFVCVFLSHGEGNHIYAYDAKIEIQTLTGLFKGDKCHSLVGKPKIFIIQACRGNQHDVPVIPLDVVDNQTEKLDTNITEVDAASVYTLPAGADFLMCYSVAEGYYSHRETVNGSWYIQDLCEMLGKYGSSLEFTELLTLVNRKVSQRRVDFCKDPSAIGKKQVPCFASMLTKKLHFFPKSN

[3] = Shn3 3'UTR reporter inhibitors, dose response, cell-based, Clone20 osteoblasts, firefly luciferase, cherry-picked (AID 624132); format: functional;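 further: firefly luciferase luminescence from reporter carrying the Shn3 3'UTR in osteoblasts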
[4] = cells; format: functional, cell-based
[5] = cells; format: functional, cell-based; remark: listed apart in the source
[6] = biological target: Paired box protein Pax-8 (Homo sapiens, UniProt Q06710); experiment: inhibitors of PAX8-driven TPO luciferase reporter, dose response, RMG-I cells, cherry-pick (AID 687027); format: functional, cell-based;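 further: luciferase reporter driven by Pax8 target thyroperoxidase promoter measured by SteadyGlo luminescence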
[7] = cytotoxicity in OVCAR8 ovarian cancer cells, dose response, PAX8 project, cell-based, plate reader, dry powder samples (AID 743197); format: functional; settings: OVCAR-8
[8] = biological target: T3, DNA repair protein RAD52 homolog (Homo sapiens, UniProt P43351); format: functional, biochemical
T3 sequence (P43351 whole entry): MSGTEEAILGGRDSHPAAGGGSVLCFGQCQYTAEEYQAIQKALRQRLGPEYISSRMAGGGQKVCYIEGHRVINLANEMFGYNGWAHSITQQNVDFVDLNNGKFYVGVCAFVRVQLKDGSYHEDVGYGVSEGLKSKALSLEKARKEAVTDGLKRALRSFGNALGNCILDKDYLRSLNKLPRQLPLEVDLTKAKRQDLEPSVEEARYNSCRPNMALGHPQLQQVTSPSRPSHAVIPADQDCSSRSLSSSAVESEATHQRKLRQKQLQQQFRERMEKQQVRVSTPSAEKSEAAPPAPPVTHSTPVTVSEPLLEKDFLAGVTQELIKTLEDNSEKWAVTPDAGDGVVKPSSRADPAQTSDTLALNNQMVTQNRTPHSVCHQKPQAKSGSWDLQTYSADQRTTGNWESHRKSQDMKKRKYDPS

[9] = biological target: T4, Ubiquitin-conjugating enzyme E2 N (Homo sapiens, UniProt P61088); format: functional;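 further: Dose-response confirmation in a TR-FRET assay detecting UBC13-driven polyubiquitin chain formation, inhibition measured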
T4 sequence (P61088 whole entry): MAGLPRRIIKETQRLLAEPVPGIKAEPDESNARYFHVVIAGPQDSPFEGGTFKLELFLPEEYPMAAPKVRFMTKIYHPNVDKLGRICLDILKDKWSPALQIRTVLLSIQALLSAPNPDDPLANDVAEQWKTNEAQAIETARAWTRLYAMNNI

[10] = biological target: T5, Leucine aminopeptidase (Plasmodium falciparum 3D7, UniProt Q8IL11); experiment: P. falciparum M17LAP inhibitors, primary screen, biochemical, fluorogenic H-Leu-NHMec substrate, 1536-well (AID 1619); format: functional
T5 sequence (Q8IL11 whole entry): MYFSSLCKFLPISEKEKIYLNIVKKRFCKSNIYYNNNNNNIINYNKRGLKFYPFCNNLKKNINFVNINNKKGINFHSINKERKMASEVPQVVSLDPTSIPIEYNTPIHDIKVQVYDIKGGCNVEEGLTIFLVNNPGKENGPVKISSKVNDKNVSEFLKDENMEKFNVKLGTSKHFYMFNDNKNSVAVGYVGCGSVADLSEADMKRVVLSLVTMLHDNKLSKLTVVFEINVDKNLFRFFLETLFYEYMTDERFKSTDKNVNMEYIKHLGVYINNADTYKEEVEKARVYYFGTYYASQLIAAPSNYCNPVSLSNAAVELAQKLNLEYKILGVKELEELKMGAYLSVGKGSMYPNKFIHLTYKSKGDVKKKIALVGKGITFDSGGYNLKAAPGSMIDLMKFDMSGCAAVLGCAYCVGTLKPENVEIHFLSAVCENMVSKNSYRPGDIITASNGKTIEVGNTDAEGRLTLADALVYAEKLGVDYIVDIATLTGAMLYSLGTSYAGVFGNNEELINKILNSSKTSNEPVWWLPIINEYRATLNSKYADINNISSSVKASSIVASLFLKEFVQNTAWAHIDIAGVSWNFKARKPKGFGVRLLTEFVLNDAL

[11] = biological target: Cytochrome P450 2C19 (Homo sapiens, UniProt P33261); experiment: Cytochrome panel assay with activity outcomes. Panel member name: p450-cyp2c19 Compounds with AC50 equal or less than 10 uM are considered active; format: functional; settings: read-out: AC50
[12] = biological target: Cytochrome P450 2C9 (Homo sapiens, UniProt P11712)
[13] = biological target: T6, Short transient receptor potential channel 4 (Mus musculus, UniProt Q9QUQ5); experiment: mouse TRPC4 channel activators, dose response, cell-based, HEK293 TRPC4/mu-opioid, Fluo-4 calcium (AID 434937); format: functional
T6 sequence (Q9QUQ5 whole entry): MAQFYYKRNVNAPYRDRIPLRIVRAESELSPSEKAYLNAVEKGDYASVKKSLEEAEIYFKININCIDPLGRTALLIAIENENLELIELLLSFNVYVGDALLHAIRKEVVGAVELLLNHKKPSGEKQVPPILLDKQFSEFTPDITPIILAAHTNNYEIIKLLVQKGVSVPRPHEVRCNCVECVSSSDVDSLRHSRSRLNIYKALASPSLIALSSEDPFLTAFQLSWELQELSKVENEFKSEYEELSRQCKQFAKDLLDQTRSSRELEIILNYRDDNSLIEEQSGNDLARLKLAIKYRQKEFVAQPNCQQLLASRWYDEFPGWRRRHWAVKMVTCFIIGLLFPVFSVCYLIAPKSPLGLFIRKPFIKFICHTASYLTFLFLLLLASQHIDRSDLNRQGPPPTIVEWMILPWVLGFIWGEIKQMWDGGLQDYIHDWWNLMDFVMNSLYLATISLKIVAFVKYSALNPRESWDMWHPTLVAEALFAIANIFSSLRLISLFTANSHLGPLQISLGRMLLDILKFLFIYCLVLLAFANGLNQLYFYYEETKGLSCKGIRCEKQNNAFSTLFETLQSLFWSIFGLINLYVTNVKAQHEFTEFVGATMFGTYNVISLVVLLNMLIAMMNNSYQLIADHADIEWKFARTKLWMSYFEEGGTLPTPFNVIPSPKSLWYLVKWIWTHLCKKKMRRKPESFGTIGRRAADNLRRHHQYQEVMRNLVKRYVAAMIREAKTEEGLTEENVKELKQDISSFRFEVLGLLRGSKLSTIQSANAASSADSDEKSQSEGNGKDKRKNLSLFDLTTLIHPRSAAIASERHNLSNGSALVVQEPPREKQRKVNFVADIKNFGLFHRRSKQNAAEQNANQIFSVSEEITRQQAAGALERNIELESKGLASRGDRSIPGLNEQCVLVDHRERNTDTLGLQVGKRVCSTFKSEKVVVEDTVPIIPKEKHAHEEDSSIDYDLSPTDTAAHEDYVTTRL

[14] = NIH:OVCAR-3 ovarian cancer cell cytotoxicity, dose response, PAX8 inhibitor project, plate reader, dry powder samples (AID 743044); format: functional, cell-based
[15] = biological target: T7, Corticotropin-releasing factor receptor 2/Corticotropin-releasing factor-binding protein (Homo sapiens, UniProt P24387+Q13324); experiment: activators of CRF receptor 2 with binding protein – uHTS hits, confirmation (AID 602473); format: functional; settings: read-out: EC50_Mean
T7 sequence (Q13324 whole entry): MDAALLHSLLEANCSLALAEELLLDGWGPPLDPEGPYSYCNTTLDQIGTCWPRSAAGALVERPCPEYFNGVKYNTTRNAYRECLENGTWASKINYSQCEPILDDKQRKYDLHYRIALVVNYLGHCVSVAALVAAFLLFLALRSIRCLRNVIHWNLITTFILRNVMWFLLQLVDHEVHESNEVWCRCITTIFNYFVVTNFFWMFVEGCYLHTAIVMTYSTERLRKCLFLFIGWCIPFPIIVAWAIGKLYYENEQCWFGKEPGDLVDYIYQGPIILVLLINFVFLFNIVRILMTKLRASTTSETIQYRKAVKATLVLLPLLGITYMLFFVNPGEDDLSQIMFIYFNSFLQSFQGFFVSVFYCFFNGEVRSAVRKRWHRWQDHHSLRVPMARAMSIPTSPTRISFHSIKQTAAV
T7 sequence (P24387 whole entry): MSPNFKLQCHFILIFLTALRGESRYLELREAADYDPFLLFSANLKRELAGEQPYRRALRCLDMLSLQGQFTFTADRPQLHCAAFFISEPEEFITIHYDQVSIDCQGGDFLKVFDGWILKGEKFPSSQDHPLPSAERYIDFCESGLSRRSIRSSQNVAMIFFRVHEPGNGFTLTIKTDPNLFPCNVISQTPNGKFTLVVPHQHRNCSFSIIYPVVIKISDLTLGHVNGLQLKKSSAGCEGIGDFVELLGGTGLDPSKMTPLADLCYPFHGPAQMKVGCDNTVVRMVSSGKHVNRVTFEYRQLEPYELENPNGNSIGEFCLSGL

[16] = biological target: T6, Short transient receptor potential channel 4; experiment: mouse TRPC4 channel inhibitors, dose response, cell-based, HEK293 TRPC4/mu-opioid, Fluo-4 calcium (AID 434942); format: functional;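 further: potency of inhibitors blocking the TRPC4 calcium response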

Sequence of Paired box protein Pax-8 (Q06710 whole entry): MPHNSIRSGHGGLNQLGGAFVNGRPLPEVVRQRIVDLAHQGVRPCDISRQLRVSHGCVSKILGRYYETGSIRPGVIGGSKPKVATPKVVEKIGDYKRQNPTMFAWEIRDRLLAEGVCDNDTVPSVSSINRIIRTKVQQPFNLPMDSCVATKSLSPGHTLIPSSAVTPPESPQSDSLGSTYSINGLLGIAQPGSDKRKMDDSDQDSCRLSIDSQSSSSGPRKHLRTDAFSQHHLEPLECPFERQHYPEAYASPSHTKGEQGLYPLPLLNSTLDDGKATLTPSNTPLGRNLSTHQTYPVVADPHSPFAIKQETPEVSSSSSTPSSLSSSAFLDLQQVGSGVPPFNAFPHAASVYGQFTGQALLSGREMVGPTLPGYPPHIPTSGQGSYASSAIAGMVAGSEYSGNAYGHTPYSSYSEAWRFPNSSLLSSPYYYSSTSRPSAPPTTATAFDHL
Sequence of Cytochrome P450 2C9 (P11712 whole entry): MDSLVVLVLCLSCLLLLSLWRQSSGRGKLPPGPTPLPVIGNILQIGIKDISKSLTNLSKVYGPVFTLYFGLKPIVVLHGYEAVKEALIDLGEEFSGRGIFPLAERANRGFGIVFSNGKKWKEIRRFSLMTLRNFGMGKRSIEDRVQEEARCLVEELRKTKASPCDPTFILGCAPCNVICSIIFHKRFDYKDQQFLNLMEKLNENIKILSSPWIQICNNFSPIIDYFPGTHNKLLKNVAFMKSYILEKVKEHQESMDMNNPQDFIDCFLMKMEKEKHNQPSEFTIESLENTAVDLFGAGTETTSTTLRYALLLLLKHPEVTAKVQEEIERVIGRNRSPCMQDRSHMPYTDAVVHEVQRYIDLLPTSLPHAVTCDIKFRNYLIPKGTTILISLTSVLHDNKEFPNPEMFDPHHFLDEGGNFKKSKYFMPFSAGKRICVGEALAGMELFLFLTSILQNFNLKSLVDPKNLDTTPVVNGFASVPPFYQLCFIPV
Sequence of Cytochrome P450 2C19 (P33261 whole entry): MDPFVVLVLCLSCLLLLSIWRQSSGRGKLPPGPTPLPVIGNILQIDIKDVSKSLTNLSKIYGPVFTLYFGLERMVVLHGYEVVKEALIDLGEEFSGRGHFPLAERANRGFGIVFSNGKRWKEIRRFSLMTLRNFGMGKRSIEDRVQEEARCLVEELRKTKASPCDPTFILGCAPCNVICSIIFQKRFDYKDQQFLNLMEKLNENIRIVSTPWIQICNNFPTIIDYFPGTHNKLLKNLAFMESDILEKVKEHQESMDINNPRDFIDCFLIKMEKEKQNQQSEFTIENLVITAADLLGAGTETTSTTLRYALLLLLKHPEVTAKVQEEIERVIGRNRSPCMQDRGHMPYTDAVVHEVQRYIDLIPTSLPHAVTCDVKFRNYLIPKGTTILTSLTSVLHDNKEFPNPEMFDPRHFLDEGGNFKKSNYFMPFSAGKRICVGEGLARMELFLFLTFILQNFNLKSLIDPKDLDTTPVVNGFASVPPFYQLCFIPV

COc1cccc2sc(/N=C/N(C)C)nc12
IC50 [1]: > 50 µM (inactive)

CSc1ccc(CN2CCC(C)(Oc3cnc(Cl)c4ccccc34)C2)cc1 (centres undefined)
AC50 [2]: 46 µM (active)

COc1cc(C)c(S(=O)(=O)NCc2cccs2)cc1C
IC50 [1]: > 50 µM (inactive)

C=CCOC(=O)C1=C(C)N=C2SCCC(=O)N2C1c1cccs1 (centres undefined)
AC50 [3]: > 70 µM (inactive) | IC50 [1]: > 50 µM (inactive)

CCCn1c(O)cc(=O)nc1SCC(=O)N1CCc2ccccc2C1
EC50 [4]: > 29.9 µM (inactive) | IC50 [5]: > 29.9 µM (inactive)

C[C@@H]1CCCCO[C@@H](CN(C)S(=O)(=O)c2cccs2)[C@H](C)CN([C@H](C)CO)C(=O)c2cc(NC(=O)Nc3ccc(C(F)(F)F)cc3)ccc2O1
AC50 [6]: 3.17 µM (active) | AC50 [7]: > 70 µM (inactive)

Cc1cccc(-c2nc3ccc(C(=O)NCCN4CCN(C)CC4)cc3nc2-c2cccc(C)c2)c1
AC50 [8]: 9.79 µM (active) | IC50 [9]: > 20 µM (inactive)

C/C(CC1CC(C)(C)OC1=O)=N/Nc1nc(-c2ccccc2)cs1 (centres undefined)
IC50 [10]: 52.8 µM (active)

CCC(C)[C@H](NC(=O)Nc1ccc(Oc2ccccc2)cc1)C(=O)O (some centres undefined)
AC50 [11]: 5.62 µM (inconclusive) | AC50 [12]: 8.91 µM (inconclusive) | IC50 [10]: 21.8 µM (active)

COc1ccc(CNCCc2ccc3c(c2)OCO3)cc1Br
EC50 [13]: 3.76 µM (active)

CCOc1ccc(NC(=O)CN2C(=O)C3CC=CCC3C2=O)cc1 (centres undefined)
IC50 [10]: 3.86 µM (active)

O=C(NC(Cc1ccc2c(c1)OCO2)C(=O)NC(Cc1ccccc1)C(=O)O)c1ccccc1 (centres undefined)
IC50 [10]: 19.7 µM (active)

O=C(O)CC(=O)Nc1ccccc1C(=O)O
IC50 [1]: > 50 µM (inactive)

O=Cc1ccc(OCC(=O)Nc2ccccc2C(F)(F)F)cc1
IC50 [1]: > 50 µM (inactive)

C[C@H](CO)N1C[C@H](C)[C@H](CN(C)CC2CCCCC2)Oc2ccc(NS(=O)(=O)c3ccc(Cl)cc3)cc2CC1=O
AC50 [14]: 58.6 µM (active) | AC50 [6]: 7.77 µM (active)

O=C(NCC(c1cccs1)N1CCOCC1)c1ccc(Cl)c([N+](=O)[O-])c1 (centres undefined)
EC50 [13]: 5.31 µM (active)

C[C@H]1CCCCO[C@H](CN(C)Cc2ccc(C(F)(F)F)cc2)[C@@H](C)CN([C@@H](C)CO)C(=O)c2cc(NS(=O)(=O)c3ccc(F)cc3)ccc2O1
AC50 [14]: 44.9 µM (active) | AC50 [6]: 9.73 µM (active) | AC50 [7]: 43.6 µM (active)

Cc1cc(C)c(C#N)c(SCC(O)CS(=O)(=O)Cc2ccccc2)n1 (centres undefined)
IC50 [10]: 31.5 µM (active)

c1csc(-c2nc3ccccc3[nH]2)c1
IC50 [1]: > 50 µM (inactive)

COc1cccc(S(=O)(=O)Nc2ccc3c(c2)[C@H]2C[C@H](CC(=O)NCc4ccccc4F)O[C@H](CO)[C@H]2O3)c1
AC50 [6]: 16.1 µM (active) | AC50 [7]: > 70 µM (inactive)

COc1cc(C(=O)NC(=S)NNC(=O)[C@H]2C[C@@H]2c2ccccc2)cc(OC)c1OC
EC50 [13]: 3.76 µM (active)

CCOc1ccccc1N(CC(=O)N1CCOCC1)S(=O)(=O)c1ccccc1
EC50 [15]: 8.04 µM (active) | EC50 [16]: 6.68 µM (active) | EC50 [13]: 5.31 µM (active)
